Results published in patent publication US12297234B2, “Genetically encoded system for constructing and detecting biologically active agents” (The Regents of the University of Colorado, priority 2018, dated 2025).

Key:
PTP1B [1] = target: T1, PTP1B (Homo sapiens, UniProt P18031); assay: PTP1B-catalyzed hydrolysis of pNPP in the presence of inhibitor; format: biochemical, H. sapiens
T1 construct: made in house; host or cells: E. coli BL21 (B121 [sic])
T1 sequence (P18031 1-435): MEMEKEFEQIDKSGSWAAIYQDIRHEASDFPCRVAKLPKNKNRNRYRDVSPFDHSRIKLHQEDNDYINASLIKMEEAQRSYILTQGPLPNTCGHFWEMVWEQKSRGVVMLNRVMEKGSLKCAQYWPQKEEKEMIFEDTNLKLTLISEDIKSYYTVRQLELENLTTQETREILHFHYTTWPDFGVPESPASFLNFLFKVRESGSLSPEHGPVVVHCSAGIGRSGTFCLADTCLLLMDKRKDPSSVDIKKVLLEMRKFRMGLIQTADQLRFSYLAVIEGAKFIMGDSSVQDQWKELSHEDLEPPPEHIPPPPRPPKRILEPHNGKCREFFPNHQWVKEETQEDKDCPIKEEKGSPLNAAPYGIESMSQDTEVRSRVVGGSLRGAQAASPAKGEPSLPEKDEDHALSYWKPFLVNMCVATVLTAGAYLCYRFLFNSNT
Text: FIG. 14A illustrates Abietic acid. […] FIG. 14C illustrates Abietic acid (green) docked in the allosteric site of PTP1B. […] Inset highlights active site in black.
FIG. 16A-B illustrates exemplary terpenoids showing differences in stereochemistry, shape, size, and chemical functionality. FIG. 16A illustrates clockwise from abietic acid (1), neoabietic acid (2), levopimaric acid (3), dihydroabietic acid (4). […] No inhibitor. Error bars=standard error (n>5).
Lines show a fit to a model for mixed inhibition. FIG. 22D an exemplary illustration of this model, where the inhibitor (I) binds to the enzyme (E) and enzyme-substrate complex (ES) with different affinities.
Improved inhibitors. We assessed the ability of minor structural perturbations of abietadiene derivatives to yield improved inhibitors by comparing four structurally related (and commercially available) molecules (FIG. 16): abietic, neoabietic, levopimaric, and dihydroabietic acid.
Statistical Analysis of Kinetic Models. We evaluated four kinetic models of inhibition as described previously (19). In brief, we used an F-test to compare a two-parameter mixed model to several single-parameter models, and we used Akaike's Information Criterion (AIC, or Ai) to compare the single-parameter models to one another. […] Exemplary Estimation of IC50. […]

PTP1B [2] = assay: Mutational analysis of the inhibitor binding site (fractional change in inhibition); format: biochemical, H. sapiens; settings: FIG. 24C
Text: FIG. 24B illustrates exemplary disruptive mutations introduced at each site. Mutations were designed to alter the size and/or polarity of targeted residues. […] Error bars denote SE (propagated from n≥9 independent measurements of each V in Eq. 1).

PTP1B [3] = target: T1, PTP1B; assay: Binding-induced quenching of tryptophan fluorescence of PTP1B; parameters: species or system H. sapiens; settings: FIG. 17C
Text: FIG. 17A N-HSQC spectra of PTP1B (red) and PTP1B bound to abietic acid (blue). Inset: Crystal structure of PTP1B. […] Error bars represent standard error (n>5).
Binding-induced changes in the tryptophan fluorescence of PTP1B. A screen in which inhibition of PTP1B is linked to changes in tryptophan fluorescence (FIG. 21D) will enable rapid screening of moderately sized libraries (10^3-10^4)^27 in microtiter plates. Our use of binding-induced changes in tryptophan fluorescence is described in 5.6.

SMILES | inhibition relative to abietic acid (PTP1B [1]) | effect of five mutations distributed across PTP1B on inhibition (PTP1B [2]) | Ki (PTP1B [1]; commercially available abietane-type acids, FIG. 16, read-out: K, (inhibition of PTP1B)) [µM] | concentration detected by change in tryptophan fluorescence of PTP1B (PTP1B [3]) [µM]
CC(C)C1C=C2CCC3C(C)(C(=O)O)CCCC3(C)C2CC1 (stereo not drawn) [dihydroabietic acid] | ten times more inhibitory than abietic acid |  |  | 
Cl.O=C(O)C(=O)Nc1sc2c(c1C(=O)O)CCNC2 [TCS401, 2-[(Carbox-ycarbonyl)amino]-4,5,6,7-tetrahydro-thieno[2,3-c]pyridine-3-carboxylic acid hydrochloride] |  | reduced inhibition |  | 
CC(C)C1=CC2=CC[C@@H]3[C@](C)(CCC[C@@]3(C)C(=O)O)[C@H]2CC1 [abietic acid] |  | reduced inhibition | 250 | 50
CCc1oc2cc(S(=O)(=O)Nc3ccc(S(=O)(=O)Nc4nccs4)cc3)ccc2c1C(=O)c1cc(Br)c(O)c(Br)c1 [BBR, 3-(3,5-Dibromo-4-hydroxy-benzoyl)-2-ethyl-benzofuran-6-sulfonicacid-(4-(thiazol-2-ylsulfamyl)-phenyl)-amide] |  | negligible effect |  | 
